Experimental data as given in patent US11919856B2, “Compounds” (UCL BUSINESS LTD, priority 2018, dated 2024).

Legend:
[1] = biological target: T1, Z-alpha-1-antitrypsin (Z-A1AT) (Homo sapiens, UniProt P01009, E366K/V237A); assay: Inhibition of Z-alpha-1-antitrypsin polymerisation TR-FRET assay; type: biochemical; conditions: mean, 5 nM Z-A1AT, 72 hours at 37° C.
T1 construct: Z-alpha-1-antitrypsin was purified from human plasma; from tissue; host or cells: human plasma of ZZ homozygous donors
Description: The potencies of the compounds of the invention for inhibition of Z-alpha-1-antitrypsin (Z-A1AT) polymerisation can be determined by a time-resolved fluorescence energy transfer (TR-FRET) assay performed on purified Z-A1AT as described herein. […] Mean activity data for the assay described below for compounds 1-4:
Inhibition of Z-Alpha-1-Antitrypsin Polymerisation Assay Protocol
Z-alpha-1-antitrypsin was purified from human plasma of donors homozygous for the Z-A1AT form. The purification was performed according to a published protocol (Lomas et al. Biochemistry 1993; 32:500-508) involving ammonium sulphate precipitation, thiol exchange fractionation, and anion exchange fractionation.
Purified Z-A1AT was diluted to 5 nM in PBS buffer with 0.01% Tween-20 and mixed with different concentrations of inhibitor compounds dissolved in DMSO, in 384-well assay plates. Following incubation for 72 hours at 37° C., the amount of Z-A1AT polymer was detected using a time-resolved fluorescence resonance energy transfer (TR-FRET) assay format, by adding an antibody detection mix to the assay plates. The detection mix contained an A1AT-polymer specific monoclonal antibody (Miranda et al. Hepatology 2010; 52: 1078-1088), Terbium-labelled anti-mouse antibody, a polyclonal rabbit anti-A1AT antibody, and an Alexa488-labelled anti-rabbit antibody. TR-FRET data were normalised to controls (DMSO vehicle control giving 0% inhibition, saturating concentrations of an active compound giving 100% inhibition), and IC50 values were derived by fitting 4-parameter logistic curves to the normalised data.
An antibody-based time-resolved fluorescence resonance energy transfer (TR-FRET) assay was used to monitor the polymerisation of 5 nM Z α1-antitrypsin following incubation with varying concentrations of compounds at 37° C. for 72 hours. This assay used the 2C1 monoclonal antibody that is specific to pathological polymers of α1-antitrypsin (Miranda et al. Hepatology 2010; 52: 1078-1088), a polyclonal antibody that binds to all forms of α1-antitrypsin, an anti-mouse IgG fluorescence donor (Eu-W1024) and an anti-rabbit IgG acceptor (APC).

Z α1-antitrypsin polymer = conditions: 2 weeks of dosing; Hidvegi et al. Science 2010; cited from earlier work

T1 sequence (P01009 25-418 V237A/E366K): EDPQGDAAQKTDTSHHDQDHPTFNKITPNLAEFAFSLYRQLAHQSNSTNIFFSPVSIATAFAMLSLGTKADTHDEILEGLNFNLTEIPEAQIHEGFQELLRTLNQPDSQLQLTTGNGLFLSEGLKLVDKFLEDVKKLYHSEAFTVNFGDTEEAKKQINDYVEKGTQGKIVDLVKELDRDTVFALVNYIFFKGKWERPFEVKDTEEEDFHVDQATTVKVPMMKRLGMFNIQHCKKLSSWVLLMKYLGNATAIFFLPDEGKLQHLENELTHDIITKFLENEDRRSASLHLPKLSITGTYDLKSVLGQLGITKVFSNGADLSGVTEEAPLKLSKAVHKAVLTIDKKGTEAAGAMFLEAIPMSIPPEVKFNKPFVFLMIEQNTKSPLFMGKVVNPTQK

IC50 [1] | SMILES | effects on liver polymer in Z α1-antitrypsin transgenic mice (Z α1-antitrypsin polymer)
2.51 nM | CCC[C@@H](NC(=O)c1cccc2c1CC(=O)N2)[C@@H](O)c1cccc(Cl)c1C [Compound 2, N-((1S,2R)-1-(3-chloro-2-methylphenyl)-1-hydroxypentan-2-yl)-2-oxoindoline-4-carboxamide] | –
6.31 nM | CCC[C@@H](NC(=O)c1ccc(F)c2c1CC(=O)N2)[C@@H](O)c1cccc(F)c1Cl [Compound 4, N-((1S,2R)-1-(2-chloro-3-fluorophenyl)-1-hydroxypentan-2-yl)-7-fluoro-2-oxoindoline-4-carboxamide] | –
3.16 nM | CCC[C@@H](NC(=O)c1ccc(F)c2c1CC(=O)N2)[C@@H](O)c1cccc(C#N)c1Cl [Compound 3, N-((1S,2R)-1-(2-chloro-3-cyanophenyl)-1-hydroxypentan-2-yl)-7-fluoro-2-oxoindoline-4-carboxamide] | –
– | NC(=O)N1c2ccccc2C=Cc2ccccc21 [Carbamazapine] | pronounced effects
